The values below come from PubChem BioAssay AID240 (DTP/NCI, 2004).

The assay has as its system Lymphoma 4 ip in BDF1 mice, median survival. The assay is described as follows: NCI In Vivo Anticancer Drug Screen. Data for tumor model Lymphoma 4 (intraperitoneal) in B6D2F1 (BDF1) mice. The conditions noted are these: endpoint: median survival time, schedule: Q01DX010 (ip), higher = longer survival. As for the experimental part: The antitumor activity of compounds was measured in mice bearing transplantable tumors. Survival or tumor size were measured and the results are expressed as the measurement made in the treated group (T) divided by the measurement made in the vehicle treated control group (C). The tumor model used in this assay is Lymphoma 4 (intraperitoneal) in B6D2F1 (BDF1) mice

Where [1] appears, read: dose: 1.25 mg/kg/injection, vehicle: saline.
Setting [2] is: dose: 2.0 mg/kg/injection, vehicle: saline.
Setting [3] is: dose: 4.0 mg/kg/injection, vehicle: saline.
[4] abbreviates: dose: 8.0 mg/kg/injection, vehicle: saline.
The mark [5] stands for this setting: dose: 16.0 mg/kg/injection, vehicle: saline.
Setting [6] is: dose: 12.5 mg/kg/injection, vehicle: saline.
Where [7] appears, read: dose: 0.5 mg/kg/injection, vehicle: saline.
Where [8] appears, read: dose: 10.0 mg/kg/injection, vehicle: saline.
[9] abbreviates: dose: 20.0 mg/kg/injection, vehicle: saline.
[10] abbreviates: dose: 62.5 mg/kg/injection, vehicle: saline.
Where [11] appears, read: dose: 125.0 mg/kg/injection, vehicle: saline.
Setting [12] is: dose: 250.0 mg/kg/injection, vehicle: saline.
Setting [13] is: dose: 500.0 mg/kg/injection, vehicle: saline.
[14] abbreviates: dose: 0.63 mg/kg/injection, vehicle: saline.

Several values for one entry are separate records, joined by “and”; a condition that tells them apart may be missing. Identical values can stand only once. Toxic doses and inconclusive results are not listed.

`Nc1nc(=S)c2[nH]cnc2[nH]1`: the T/C reads like this: (dose: 1.25 mg/kg/injection, vehicle: other) 88 % of control; under setting [1], 94 % of control; (dose: 2.5 mg/kg/injection, vehicle: saline) 88 % of control.

As to `CC(CCC(C)OS(C)(=O)=O)OS(C)(=O)=O` (stereo not drawn), the T/C was 103 % of control under setting [2]; 103 % of control and 107 % of control under setting [3]; 96 % of control and 100 % of control under setting [4]; 107 % of control and 113 % of control under setting [5].

For `COc1cc(-c2ccc(Nc3ccccc3C(=O)O)c(OC)c2)ccc1Nc1ccccc1C(=O)O`, the T/C runs as follows: under setting [6], 107 % of control; (dose: 25.0 mg/kg/injection, vehicle: saline) 115 % of control; (dose: 50.0 mg/kg/injection, vehicle: saline) 123 % of control.

As to `CC[C@]1(O)C[C@H]2CN(CCc3c([nH]c4ccccc34)[C@@](C(=O)OC)(c3cc4c(cc3OC)N(C=O)[C@H]3[C@@](O)(C(=O)OC)[C@H](OC(C)=O)[C@]5(CC)C=CCN6CC[C@]43[C@@H]65)C2)C1`, the T/C is 104 % of control and 121 % of control (dose: 0.03 mg/kg/injection, vehicle: saline); 108 % of control (dose: 0.06 mg/kg/injection, vehicle: saline); 158 % of control (dose: 0.12 mg/kg/injection, vehicle: saline); 104 % of control under setting [7].

For the compound `Cc1cc(N(CCCl)CCCl)ccc1N=Nc1ccccc1C(=O)O`, the T/C is 171 % of control under setting [8]; 150 % of control and 166 % of control under setting [9].

On to `Nc1nc2n[nH]nc2c(=O)[nH]1`, for which the T/C (dose: 25.0 mg/kg/injection, vehicle: alkali diluted with saline) is 106 % of control; the T/C (dose: 50.0 mg/kg/injection, vehicle: alkali diluted with saline) is 120 % of control; the T/C (dose: 200.0 mg/kg/injection, vehicle: alkali diluted with saline) is 90 % of control.

Regarding `CO[C@@H]1[C@@H](OC2OC(C)C(OC3CC(C)(O)C(OC(=O)CC(C)C)C(C)O3)C(N(C)C)C2O)[C@@H](CC=O)C[C@@H](C)C(=O)/C=C/C2O[C@H]2C[C@@H](C)OC(=O)C[C@H]1OC(C)=O` (stereo partly drawn), the T/C (dose: 37.5 mg/kg/injection, vehicle: saline) is 100 % of control and 107 % of control; the T/C (dose: 75.0 mg/kg/injection, vehicle: saline) is 100 % of control and 111 % of control; the T/C (dose: 150.0 mg/kg/injection, vehicle: saline) is 100 % of control and 118 % of control; the T/C (dose: 300.0 mg/kg/injection, vehicle: saline) was 100 % of control and 111 % of control.

Regarding `CS(=O)(=O)OCCC(=O)N1CCN(C(=O)CCOS(C)(=O)=O)CC1`, the T/C is 237 % of control (dose: 100.0 mg/kg/injection, vehicle: saline) and 303 % of control (dose: 200.0 mg/kg/injection, vehicle: saline).

`N=C(N)SCc1c2ccccc2c(CSC(=N)N)c2ccccc12`: the T/C is 170 % of control (dose: 5.0 mg/kg/injection, vehicle: saline); 211 % of control under setting [8]; 303 % of control under setting [9]; 96 % of control (dose: 40.0 mg/kg/injection, vehicle: saline).

On to `N=[N+]=CC(=O)OCC(N)C(=O)O` (stereo not drawn), for which the T/C was 102 % of control and 111 % of control (dose: 3.13 mg/kg/injection, vehicle: saline); 102 % of control and 108 % of control (dose: 6.25 mg/kg/injection, vehicle: saline); 91 % of control and 114 % of control under setting [6].

Consider `N#CCSc1ncnc2nc[nH]c12`, for which the T/C is, setting by setting: (dose: 15.0 mg/kg/injection, vehicle: saline) 103 % of control; (dose: 30.0 mg/kg/injection, vehicle: saline) 100 % of control and 107 % of control; (dose: 60.0 mg/kg/injection, vehicle: saline) 100 % of control and 107 % of control; (dose: 120.0 mg/kg/injection, vehicle: saline) 107 % of control.

On to `O=c1cn[nH]c(=O)[nH]1`, for which the T/C by setting is: under setting [10], 93 % of control and 108 % of control; under setting [11], 103 % of control and 105 % of control; under setting [12], 97 % of control and 106 % of control; under setting [13], 102 % of control and 103 % of control.

Turning to `Oc1cc(CN(CCCl)CCCl)c(O)cc1CN(CCCl)CCCl`, the T/C reads like this: under setting [14], 113 % of control and 120 % of control; under setting [1], 106 % of control and 116 % of control.

Regarding `S=P(N1CCOCC1)(N1CC1)N1CC1`, the T/C is 100 % of control under setting [14] and 100 % of control under setting [1].

Take `O=CCC(O)C(O)C(O)CO` (stereo not drawn): the T/C is 100 % of control under setting [10]; 100 % of control and 103 % of control under setting [11]; 103 % of control and 107 % of control under setting [12]; 100 % of control and 110 % of control under setting [13].

On to `Nc1nc(F)nc2c1ncn2C1OC(CO)C(O)C1O` (stereo not drawn), for which the T/C reads like this: (dose: 0.25 mg/kg/injection, vehicle: saline) 100 % of control; under setting [7], 107 % of control and 114 % of control; (dose: 1.0 mg/kg/injection, vehicle: saline) 92 % of control and 103 % of control; under setting [2], 107 % of control; under setting [3], 96 % of control.

Regarding `CC[n+]1c(-c2ccccc2)c2cc(N)ccc2c2ccc(N)cc21`, the T/C under setting [8] was 242 % of control.

As for `O=C(Nc1ccc(C2=NCCN2)cc1)c1cccc(C(=O)Nc2ccc(C3=NCCN3)cc2)c1`, the T/C under setting [4] is 113 % of control and 121 % of control; the T/C under setting [5] is 120 % of control; the T/C (dose: 32.0 mg/kg/injection, vehicle: saline) was 170 % of control and 189 % of control; the T/C (dose: 64.0 mg/kg/injection, vehicle: saline) was 235 % of control.
